Measured values reported in patent US10494355B2, “Oxadiazole amine derivative compounds as histone deacetylase 6 inhibitor, and the pharmaceutical composition comprising the same” (Chong Kun Dang Pharmaceutical Corp., priority 2015, dated 2019).

Assays:
human recombinant HDAC1 = target: T1, human recombinant HDAC1 (Homo sapiens, UniProt Q13547); assay: HDAC1 enzyme activity inhibition assay (HDAC Fluorimetric Drug Discovery Kit); type: biochemical; details: human recombinant HDAC1, 10 μM substrate, 30° C. 60 minutes
T1 construct: purchased Enzo Life Science BML-SE456
T1 sequence (Q13547 whole entry): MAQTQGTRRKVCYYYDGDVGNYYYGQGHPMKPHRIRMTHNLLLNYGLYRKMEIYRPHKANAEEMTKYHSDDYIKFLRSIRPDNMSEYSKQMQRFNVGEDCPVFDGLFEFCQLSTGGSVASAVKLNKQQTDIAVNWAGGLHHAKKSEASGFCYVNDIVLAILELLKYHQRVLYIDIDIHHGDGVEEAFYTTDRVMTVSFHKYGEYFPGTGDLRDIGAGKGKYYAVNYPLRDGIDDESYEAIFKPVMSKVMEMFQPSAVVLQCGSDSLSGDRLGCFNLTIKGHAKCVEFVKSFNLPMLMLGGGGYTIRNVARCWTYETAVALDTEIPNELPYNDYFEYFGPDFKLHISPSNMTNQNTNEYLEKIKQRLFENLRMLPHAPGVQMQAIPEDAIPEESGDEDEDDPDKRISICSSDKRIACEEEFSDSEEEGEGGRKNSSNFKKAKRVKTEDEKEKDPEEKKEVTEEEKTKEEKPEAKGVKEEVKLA
Method: (§1) In order to examine the HDAC6 selectivity of the compounds of formula I of the present invention by HDAC1 and HDAC6 enzymatic activity inhibition assays, an experiment was performed using a conventional substance as a control.
(§2) HDAC enzyme activity was measured using a HDAC Fluorimetric Drug Discovery Kit (BML-AK511, 516, Enzo Life Science). For the HDAC1 enzyme activity test, human recombinant HDAC1 (BML-SE456) was used as an enzyme source, and Fluor de Lys®-“SIRT1 (BNL-KI177) was used as a substrate. A 5-fold dilution of the compound was seeded into a 96-well plate, and then 0.3 μg of the enzyme and 10 μM of the substrate were added to each well of the plate and allowed to react at 30° C. for 60 minutes. Then, Fluor de Lys®-Developer II (BML-KI176) was added thereto and allowed to react for 30 minutes, after which the fluorescence value (Ex 360, Em 460) was measured using a multi-plate reader (Flexstation 3, Molecular Device). The HDAC6 enzyme was tested using human recombinant HDAC6 (382180) (Calbiochem) according to the same protocol as the HDAC1 enzyme activity test method. Based on the resulting values, each IC50 value was calculated using GraphPad Prism4.0 program.

human recombinant HDAC6 = target: T2, human recombinant HDAC6 (Homo sapiens, UniProt Q9UBN7); assay: HDAC6 enzyme activity inhibition assay (HDAC Fluorimetric Drug Discovery Kit); type: biochemical; details: 30° C. 60 minutes
T2 construct: purchased Calbiochem 382180
T2 sequence (Q9UBN7 1-1215): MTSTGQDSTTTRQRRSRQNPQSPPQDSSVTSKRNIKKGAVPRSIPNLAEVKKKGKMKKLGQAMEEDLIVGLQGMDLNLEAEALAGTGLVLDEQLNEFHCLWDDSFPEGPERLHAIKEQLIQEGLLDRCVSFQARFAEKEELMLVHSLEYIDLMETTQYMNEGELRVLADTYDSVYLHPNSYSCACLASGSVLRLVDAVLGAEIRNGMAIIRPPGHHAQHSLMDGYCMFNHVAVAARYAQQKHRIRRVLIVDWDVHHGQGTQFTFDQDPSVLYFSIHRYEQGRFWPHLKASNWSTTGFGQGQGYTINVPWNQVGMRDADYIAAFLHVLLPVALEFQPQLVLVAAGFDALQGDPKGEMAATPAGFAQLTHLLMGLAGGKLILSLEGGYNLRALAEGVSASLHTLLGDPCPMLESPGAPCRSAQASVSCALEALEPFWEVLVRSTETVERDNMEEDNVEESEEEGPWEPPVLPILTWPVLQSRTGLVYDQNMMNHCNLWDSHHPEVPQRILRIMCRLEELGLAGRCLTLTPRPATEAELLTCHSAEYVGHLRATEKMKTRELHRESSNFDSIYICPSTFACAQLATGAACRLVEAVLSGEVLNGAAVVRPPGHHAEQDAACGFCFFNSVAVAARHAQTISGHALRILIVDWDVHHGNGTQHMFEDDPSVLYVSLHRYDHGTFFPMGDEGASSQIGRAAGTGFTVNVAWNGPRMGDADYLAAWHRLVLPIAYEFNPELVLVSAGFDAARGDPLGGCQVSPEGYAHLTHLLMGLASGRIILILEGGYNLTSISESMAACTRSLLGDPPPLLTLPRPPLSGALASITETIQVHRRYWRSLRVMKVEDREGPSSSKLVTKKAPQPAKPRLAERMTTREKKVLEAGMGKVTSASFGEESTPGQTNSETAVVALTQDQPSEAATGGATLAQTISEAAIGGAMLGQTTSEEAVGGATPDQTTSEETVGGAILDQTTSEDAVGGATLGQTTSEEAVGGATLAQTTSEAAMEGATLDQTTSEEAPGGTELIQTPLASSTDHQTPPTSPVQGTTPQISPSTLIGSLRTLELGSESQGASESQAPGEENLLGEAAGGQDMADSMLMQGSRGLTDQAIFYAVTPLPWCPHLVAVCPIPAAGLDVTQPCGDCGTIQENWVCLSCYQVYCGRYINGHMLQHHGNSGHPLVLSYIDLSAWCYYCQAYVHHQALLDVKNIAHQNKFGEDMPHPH
Method: as §1, §2

Row | IC50 (human recombinant HDAC1) [nM] | IC50 (human recombinant HDAC6) [nM] | Compound
1 | > 10000 | 758 | FC(F)c1nnc(-c2cnc(NC3(Cc4ccccc4)CCC3)nc2)o1 [Compound 2030, N-(1-benzylcyclobutyl)-5-(5-(difluoromethyl)-1,3,4-oxadiazol-2-yl)pyrimidin-2-amine]
2 | > 10000 | 204 | COc1ccc(C2(Nc3ncc(-c4nnc(C(F)(F)F)o4)cn3)CCC2)cc1 [Compound 1604, N-(1-(4-methoxyphenyl)cyclobutyl)-5-(5-(trifluoromethyl)-1,3,4-oxadiazol-2-yl)pyrimidin-2-amine]
3 | > 10000 | 25 | Oc1cccc(C2(Nc3ncc(-c4nnc(C(F)F)o4)cn3)CCC2)c1 [Compound 1761, 3-(1-((5-(5-(difluoromethyl)-1,3,4-oxadiazol-2-yl)pyrimidin-2-yl)amino)cyclobutyl)phenol]
4 | > 10000 | 29 | Fc1ccc(C2(Nc3ncc(-c4nnc(C(F)F)o4)cn3)CC2)cc1Cl [Compound 1722, N-(1-(3-chloro-4-fluorophenyl)cyclopropyl)-5-(5-(difluoromethyl)-1,3,4-oxadiazol-2-yl)pyrimidin-2-amine]
5 | > 10000 | 100 | FC(F)c1nnc(-c2cnc(NC3(c4cccc(Cl)c4Cl)CCC3)nc2)o1 [Compound 1832, N-(1-(2,3-dichlorophenyl)cyclobutyl)-5-(5-(difluoromethyl)-1,3,4-oxadiazol-2-yl)pyrimidin-2-amine]
6 | > 10000 | 63 | COc1cccc(C2(Nc3ncc(-c4nnc(C(F)F)o4)cn3)CC2)c1 [Compound 2048, 5-(5-(difluoromethyl)-1,3,4-oxadiazol-2-yl)-N-(1-(3-methoxyphenyl)cyclopropyl)pyrimidin-2-amine]
7 | > 10000 | 48 | FC(F)c1nnc(-c2cnc(NC3(c4ccccc4)CC3)nc2)o1 [Compound 1524, 5-(5-(difluoromethyl)-1,3,4-oxadiazol-2-yl)-N-(1-phenylcyclopropyl)pyrimidin-2-amine]
8 | > 10000 | 225 | FC(F)c1nnc(-c2cnc(NC3(c4ccccc4)CCNCC3)nc2)o1 [Compound 1678, 5-(5-(difluoromethyl)-1,3,4-oxadiazol-2-yl)-N-(4-phenylpiperidin-4-yl)pyrimidin-2-amine]
9 | > 10000 | 179 | FC(F)(F)c1nnc(-c2cnc(NC3(c4ccccc4)CC3)nc2)o1 [Compound 1526, N-(1-phenylcyclopropyl)-5-(5-(trifluoromethyl)-1,3,4-oxadiazol-2-yl)pyrimidin-2-amine]
10 | > 10000 | 38 | Fc1ccc(C2(Nc3ncc(-c4nnc(C(F)F)o4)cn3)CCC2)cc1 [Compound 1611, 5-(5-(difluoromethyl)-1,3,4-oxadiazol-2-yl)-N-(1-(4-fluorophenyl)cyclobutyl)pyrimidin-2-amine]
11 | > 10000 | 111 | FC(F)c1nnc(-c2cnc(NC3(c4ccsc4)CCC3)nc2)o1 [Compound 2038, 5-(5-(difluoromethyl)-1,3,4-oxadiazol-2-yl)-N-(1-(thiophen-3-yl)cyclobutyl)pyrimidin-2-amine]
12 | > 10000 | 152 | FC(F)(F)c1nnc(-c2cnc(NC3(c4cccc(Cl)c4)CC3)nc2)o1 [Compound 2051, N-(1-(3-chlorophenyl)cyclopropyl)-5-(5-(trifluoromethyl)-1,3,4-oxadiazol-2-yl)pyrimidin-2-amine]
13 | > 10000 | 1740 | FC(F)(F)c1ccc(C2(Nc3ncc(-c4nnc(C(F)(F)F)o4)cn3)CCC2)cc1 [Compound 2044, 5-(5-(trifluoromethyl)-1,3,4-oxadiazol-2-yl)-N-(1-(4-(trifluoromethyl)phenyl)cyclobutyl)pyrimidin-2-amine]
14 | > 10000 | 221 | FC(F)c1nnc(-c2cnc(NC3(c4cccc(C5CCN(C6COC6)CC5)c4)CCC3)nc2)o1 [Compound 2060, 5-(5-(difluoromethyl)-1,3,4-oxadiazol-2-yl)-N-(1-(3-(1-(oxetan-3-yl)piperidin-4-yl)phenyl)cyclobutyl)pyrimidin-2-amine]
15 | > 10000 | 30 | FC(F)c1nnc(-c2cnc(NC3(c4ccccc4)CCC3)nc2)o1 [Compound 1559, 5-(5-(difluoromethyl)-1,3,4-oxadiazol-2-yl)-N-(1-phenylcyclobutyl)pyrimidin-2-amine]
16 | > 10000 | 51 | COc1ccc(C2(Nc3ncc(-c4nnc(C(F)F)o4)cn3)CC2)cc1 [Compound 2049, 5-(5-(difluoromethyl)-1,3,4-oxadiazol-2-yl)-N-(1-(4-methoxyphenyl)cyclopropyl)pyrimidin-2-amine]
17 | > 10000 | 267 | FC(F)(F)c1nnc(-c2cnc(NC3(c4ccc(Cl)cc4)CCC3)nc2)o1 [Compound 1618, N-(1-(4-chlorophenyl)cyclobutyl)-5-(5-(trifluoromethyl)-1,3,4-oxadiazol-2-yl)pyrimidin-2-amine]
18 | > 10000 | 33 | Fc1cc(F)cc(C2(Nc3ncc(-c4nnc(C(F)F)o4)cn3)CC2)c1 [Compound 2057, 5-(5-(difluoromethyl)-1,3,4-oxadiazol-2-yl)-N-(1-(3,5-difluorophenyl)cyclopropyl)pyrimidin-2-amine]
19 | > 10000 | 282 | FC(F)c1nnc(-c2cnc(NC3(c4ccc(OC(F)(F)F)cc4)CCC3)nc2)o1 [Compound 1822, 5-(5-(difluoromethyl)-1,3,4-oxadiazol-2-yl)-N-(1-(4-(trifluoromethoxy)phenyl)cyclobutyl)pyrimidin-2-amine]
20 | > 10000 | 28 | FC(F)c1nnc(-c2cnc(NC3(c4ccccn4)CCC3)nc2)o1 [Compound 1640, 5-(5-(difluoromethyl)-1,3,4-oxadiazol-2-yl)-N-(1-(pyridin-2-yl)cyclobutyl)pyrimidin-2-amine]
21 | > 10000 | 120 | Fc1cc(F)c(C2(Nc3ncc(-c4nnc(C(F)F)o4)cn3)CCC2)cc1F [Compound 1826, 5-(5-(difluoromethyl)-1,3,4-oxadiazol-2-yl)-N-(1-(2,4,5-trifluorophenyl)cyclobutyl)pyrimidin-2-amine]
22 | > 10000 | 450 | FC(F)(F)c1cccc(C2(Nc3ncc(-c4nnc(C(F)(F)F)o4)cn3)CC2)c1 [Compound 1741, 5-(5-(trifluoromethyl)-1,3,4-oxadiazol-2-yl)-N-(1-(3-(trifluoromethyl)phenyl)cyclopropyl)pyrimidin-2-amine]
23 | > 10000 | 455 | Fc1ccc(C2(Nc3ncc(-c4nnc(C(F)(F)F)o4)cn3)CCC2)cc1 [Compound 1612, N-(1-(4-fluorophenyl)cyclobutyl)-5-(5-(trifluoromethyl)-1,3,4-oxadiazol-2-yl)pyrimidin-2-amine]
24 | > 10000 | > 10000 | Cc1ccc(S(=O)(=O)CC2(Nc3ncc(-c4nnc(C(F)F)o4)cn3)CCC2)cc1 [Compound 2026, 5-(5-(difluoromethyl)-1,3,4-oxadiazol-2-yl)-N-(1-(tosylmethyl)cyclobutyl)pyrimidin-2-amine]
25 |  | 134 | Fc1ccc(C2(Nc3ncc(-c4nnc(C(F)F)o4)cn3)CC2)cc1F [Compound 1779, 5-(5-(difluoromethyl)-1,3,4-oxadiazol-2-yl)-N-(1-(3,4-difluorophenyl)cyclopropyl)pyrimidin-2-amine]
